Data reported in patent US4693992A, “Bacitracin-metal-polyether antibiotic complexes” (International Minerals & Chemical Corp., priority 1985, dated 1987).

Legend:
Eimeria tenella [1] = test: Anticoccidial activity in chickens inoculated with Eimeria tenella oocysts (Example 11); assay type: in vivo; conditions: for Incidence of Bloody Droppings / Morbidity: 4th-6th day; for Mortality: 4th-7th day
Description: (§1) This example describes experimental testing of complexes of this invention for anticoccidial activity. Anticoccidial activities of test compounds were determined by administering the compounds (in feed) to chickens inoculated with active oocysts of Eimeria tenella. The test compounds, which are listed in Table 1 below, included four bacitracin-metal-polyether antibiotic complexes prepared according to the procedures described above. In addition, sodium lysocellin, regular bacitracin, sodium monensin, sodium lasolocid, and unmedicated inoculated and noninoculated controls were included for comparative purposes.
(§2) The test animals were Hubbard White Mountain male chicken (broiler strain) that were 5 days old at the beginning of the test. Each experimental compound was administered in a chick starter diet (Table 2) at a level of 80 g/ton and 120 g/ton. At 7 days of age, chicks were individually weighed, banded, and started on their respective treatments. Each treatment was replicated three times with five birds per replicate for a total of 15 birds per group. The test period was 10 days.
Seventy-two hours after the initiation of medication, birds were reweighed and orally inoculated with approximately 100,000 Eimeria tenella oocysts suspended in a 1 cc dose of saline. The following criteria were then evaluated over the next seven days: […]
a. morbidity (4th-6th day) b. mortality (4th-7th day) c. incidence of bloody droppings (4th-6th day)

Eimeria tenella [2] = test: Anticoccidial activity in chickens inoculated with Eimeria tenella (Example 12); assay type: in vivo, chicken; conditions: for Cecal Bleeding / Gain/Bird Days 0-3 / Gain/Bird Days 4-10: regrouped part of Table 2
Description: as §1, §2
Seventy-two hours after the initiation of medication, birds were reweighed and orally inoculated with approximately 100,000 Eimeria tenella oocysts suspended in a 1 cc dose of saline. The following criteria were then evaluated over the next seven days:
A satisfactory challenge was obtained with Eimeria tenella.

[3] = 80 g/ton in feed, birds affected/birds in group
[4] = 80 g/ton in feed, birds dead/birds in group
[5] = 80 g/ton in feed, feed per gain
[6] = 120 g/ton in feed, birds affected/birds in group
[7] = 120 g/ton in feed, birds dead/birds in group
[8] = 120 g/ton in feed, feed per gain

CC[C@@H](C(=O)[C@@H](C)[C@@H](O)[C@H](C)CCc1ccc(C)c(O)c1C(=O)O)[C@H]1O[C@](CC)([C@H]2CC[C@](O)(CC)[C@H](C)O2)C[C@@H]1C [Lasalocid, sodium lasalocid, reference compound]
anticoccidial activity (in words) (Eimeria tenella [1]; 80 and 120 g/ton, mild E. tenella challenge): excellent anticoccidial activity | Incidence of Bloody Droppings (Eimeria tenella [1]; 80 g/ton in feed): None | Morbidity (Eimeria tenella [1]; [3]): 0/15 | Mortality (Eimeria tenella [1]; [4]): 0/15 | Gain, Grams Day 0-3 (Eimeria tenella [1]; 80 g/ton in feed): 59.7 Grams | Gain, Grams Day 4-10 (Eimeria tenella [1]; 80 g/ton in feed): 232.4 Grams | F/G Day 0-3 (Eimeria tenella [1]; [5]): 1.68 | F/G Day 4-10 (Eimeria tenella [1]; [5]): 1.58 | Incidence of Bloody Droppings (Eimeria tenella [1]; 120 g/ton in feed): None | Morbidity (Eimeria tenella [1]; [6]): 1/15 | Mortality (Eimeria tenella [1]; [7]): 0/15 | Gain, Grams Day 0-3 (Eimeria tenella [1]; 120 g/ton in feed): 55.7 Grams | Gain, Grams Day 4-10 (Eimeria tenella [1]; 120 g/ton in feed): 230.1 Grams | F/G Day 0-3 (Eimeria tenella [1]; [8]): 1.75 | F/G Day 4-10 (Eimeria tenella [1]; [8]): 1.56 | Cecal Bleeding (Eimeria tenella [2]; 14 g/ton Lasalocid (Approx.)): Severe | Gain/Bird Days 0-3 (Eimeria tenella [2]; 14 g/ton Lasalocid (Approx.)): 58.7 | Gain/Bird Days 4-10 (Eimeria tenella [2]; 14 g/ton Lasalocid (Approx.)): 148.5 | Cecal bleeding associated with E. tenella infections (Eimeria tenella [2]; 24 (.30 of 80) gram per ton): severe | Incidence of Bloody Droppings (Eimeria tenella [2]; 24 g/ton in feed): Severe | Morbidity (Eimeria tenella [2]; 24 g/ton in feed): 9/15 | Mortality (Eimeria tenella [2]; 24 g/ton in feed): 0/15 | F/G Day 0-3 (Eimeria tenella [2]; 24 g/ton in feed): 1.78 | Gain/Bird Grams Day 0-3 (Eimeria tenella [2]; 24 g/ton in feed): 58.7 Grams | F/G Day 4-10 (Eimeria tenella [2]; 24 g/ton in feed): 2.09 | Gain/Bird Grams Day 4-10 (Eimeria tenella [2]; 24 g/ton in feed): 148.5 Grams | Cecal Bleeding (Eimeria tenella [2]; 36 g/ton Lasalocid (Approx.)): Moderate | Gain/Bird Days 0-3 (Eimeria tenella [2]; 36 g/ton Lasalocid (Approx.)): 61.5 | Gain/Bird Days 4-10 (Eimeria tenella [2]; 36 g/ton Lasalocid (Approx.)): 176.5 | Incidence of Bloody Droppings (Eimeria tenella [2]; 36 g/ton in feed): Moderate | Morbidity (Eimeria tenella [2]; 36 g/ton in feed): 5/14 | Mortality (Eimeria tenella [2]; 36 g/ton in feed): 1/14 | F/G Day 0-3 (Eimeria tenella [2]; 36 g/ton in feed): 1.74 | Gain/Bird Grams Day 0-3 (Eimeria tenella [2]; 36 g/ton in feed): 61.5 Grams | F/G Day 4-10 (Eimeria tenella [2]; 36 g/ton in feed): 1.86 | Gain/Bird Grams Day 4-10 (Eimeria tenella [2]; 36 g/ton in feed): 176.5 Grams | Incidence of Bloody Droppings (Eimeria tenella [2]; 80 g/ton in feed): None | Morbidity (Eimeria tenella [2]; 80 g/ton in feed): 1/15 | Mortality (Eimeria tenella [2]; 80 g/ton in feed): 0/15 | F/G Day 0-3 (Eimeria tenella [2]; 80 g/ton in feed): 1.71 | Gain/Bird Grams Day 0-3 (Eimeria tenella [2]; 80 g/ton in feed): 58.0 Grams | F/G Day 4-10 (Eimeria tenella [2]; 80 g/ton in feed): 1.60 | Gain/Bird Grams Day 4-10 (Eimeria tenella [2]; 80 g/ton in feed): 219.4 Grams | Incidence of Bloody Droppings (Eimeria tenella [2]; 120 g/ton in feed): None | Morbidity (Eimeria tenella [2]; 120 g/ton in feed): 0/15 | Mortality (Eimeria tenella [2]; 120 g/ton in feed): 0/15 | F/G Day 0-3 (Eimeria tenella [2]; 120 g/ton in feed): 1.76 | Gain/Bird Grams Day 0-3 (Eimeria tenella [2]; 120 g/ton in feed): 52.1 Grams | F/G Day 4-10 (Eimeria tenella [2]; 120 g/ton in feed): 1.52 | Gain/Bird Grams Day 4-10 (Eimeria tenella [2]; 120 g/ton in feed): 225.2 Grams

CC[C@@]1([C@@H]2O[C@@H]([C@H]3O[C@@](O)(CO)[C@H](C)C[C@@H]3C)C[C@@H]2C)CC[C@H]([C@]2(C)CC[C@]3(C[C@H](O)[C@@H](C)[C@@H]([C@@H](C)[C@@H](OC)[C@H](C)C(=O)O)O3)O2)O1 [Monensin, sodium monensin, reference compound]
protection against cecal bleeding (Eimeria tenella [1]; level in feed not given): fair | tolerance by the birds (Eimeria tenella [1]; level in feed not given): not tolerated well | Incidence of Bloody Droppings (Eimeria tenella [1]; level in feed not given): Slight | Morbidity (Eimeria tenella [1]; level in feed not given): 5/15 | Mortality (Eimeria tenella [1]; level in feed not given): 0/15 | F/G Day 0-3 (Eimeria tenella [1]; level in feed not given): 1.81 | Gain, Grams Day 0-3 (Eimeria tenella [1]; level in feed not given): 53.2 Grams | F/G Day 4-10 (Eimeria tenella [1]; level in feed not given): 1.64 | Gain, Grams Day 4-10 (Eimeria tenella [1]; level in feed not given): 202.5 Grams

Bacitracin-Copper-Lysocellin Complex [Example 2]
Incidence of Bloody Droppings (Eimeria tenella [1]; 80 g/ton in feed): Severe | Morbidity (Eimeria tenella [1]; [3]): 6/15 | Mortality (Eimeria tenella [1]; [4]): 1/15 | Gain, Grams Day 0-3 (Eimeria tenella [1]; 80 g/ton in feed): 59.0 Grams | Gain, Grams Day 4-10 (Eimeria tenella [1]; 80 g/ton in feed): 200.2 Grams | F/G Day 0-3 (Eimeria tenella [1]; [5]): 1.67 | F/G Day 4-10 (Eimeria tenella [1]; [5]): 1.74 | Morbidity (Eimeria tenella [1]; [6]): 6/15 | Mortality (Eimeria tenella [1]; [7]): 0/15 | Gain, Grams Day 0-3 (Eimeria tenella [1]; 120 g/ton in feed): 64.3 Grams | Gain, Grams Day 4-10 (Eimeria tenella [1]; 120 g/ton in feed): 203.5 Grams | F/G Day 0-3 (Eimeria tenella [1]; [8]): 1.69 | F/G Day 4-10 (Eimeria tenella [1]; [8]): 1.74 | Cecal Bleeding (Eimeria tenella [2]; 14 g/ton Lasalocid (Approx.)): Severe | Gain/Bird Days 0-3 (Eimeria tenella [2]; 14 g/ton Lasalocid (Approx.)): 60.5 | Gain/Bird Days 4-10 (Eimeria tenella [2]; 14 g/ton Lasalocid (Approx.)): 171.5 | Cecal Bleeding (Eimeria tenella [2]; 36 g/ton Lasalocid (Approx.)): Slight-Moderate | Gain/Bird Days 0-3 (Eimeria tenella [2]; 36 g/ton Lasalocid (Approx.)): 57.0 | Gain/Bird Days 4-10 (Eimeria tenella [2]; 36 g/ton Lasalocid (Approx.)): 198.7 | Incidence of Bloody Droppings (Eimeria tenella [2]; 80 g/ton in feed): Severe | Morbidity (Eimeria tenella [2]; 80 g/ton in feed): 5/15 | Mortality (Eimeria tenella [2]; 80 g/ton in feed): 0/15 | F/G Day 0-3 (Eimeria tenella [2]; 80 g/ton in feed): 1.68 | Gain/Bird Grams Day 0-3 (Eimeria tenella [2]; 80 g/ton in feed): 60.5 Grams | F/G Day 4-10 (Eimeria tenella [2]; 80 g/ton in feed): 1.92 | Gain/Bird Grams Day 4-10 (Eimeria tenella [2]; 80 g/ton in feed): 171.5 Grams | Cecal bleeding associated with E. tenella infections (Eimeria tenella [2]; 80 gram per ton): severe | weight gains compared with those of test compound 5 and lasalocid (Eimeria tenella [2]; 80 gram per ton (lasalocid 24 gram per ton)): appreciably higher | Morbidity (Eimeria tenella [2]; 120 g/ton in feed): 4/15 | Mortality (Eimeria tenella [2]; 120 g/ton in feed): 0/15 | F/G Day 0-3 (Eimeria tenella [2]; 120 g/ton in feed): 1.75 | Gain/Bird Grams Day 0-3 (Eimeria tenella [2]; 120 g/ton in feed): 57.0 Grams | F/G Day 4-10 (Eimeria tenella [2]; 120 g/ton in feed): 1.74 | Gain/Bird Grams Day 4-10 (Eimeria tenella [2]; 120 g/ton in feed): 198.7 Grams | anticoccidial activity (in words) (Eimeria tenella [2]; 120 grams per ton): good anticoccidial activity
